From ChEMBL document CHEMBL5532663, “Discovery of Potent and Selective Phosphatidylinositol 3-Phosphate 5-Kinase (PIKfyve) Inhibitors as Methuosis Inducers” (J Med Chem, 2024)

How the values were obtained:
MDA-MB-231 = test: cells; conditions: Homo sapiens, MDA-MB-231, 24 h
Description: Antiproliferative activity against human MDA-MB-231 cells assessed as inhibition of cell viability incubated for 24 hrs by CCK8 assay

HeLa = test: cells; conditions: Homo sapiens, 24 h
Description: Antiproliferative activity against human HeLa cells assessed as inhibition of cell viability incubated for 24 hrs by CCK8 assay

[1] = target: T1, 1-phosphatidylinositol 3-phosphate 5-kinase (Homo sapiens, UniProt Q9Y2I7); test: Binding affinity to PIKfyve (unknown origin) assessed as dissociation constant by KINOMEscan profiling method
[2] = target: T1, 1-phosphatidylinositol 3-phosphate 5-kinase

T1 sequence (Q9Y2I7 whole entry): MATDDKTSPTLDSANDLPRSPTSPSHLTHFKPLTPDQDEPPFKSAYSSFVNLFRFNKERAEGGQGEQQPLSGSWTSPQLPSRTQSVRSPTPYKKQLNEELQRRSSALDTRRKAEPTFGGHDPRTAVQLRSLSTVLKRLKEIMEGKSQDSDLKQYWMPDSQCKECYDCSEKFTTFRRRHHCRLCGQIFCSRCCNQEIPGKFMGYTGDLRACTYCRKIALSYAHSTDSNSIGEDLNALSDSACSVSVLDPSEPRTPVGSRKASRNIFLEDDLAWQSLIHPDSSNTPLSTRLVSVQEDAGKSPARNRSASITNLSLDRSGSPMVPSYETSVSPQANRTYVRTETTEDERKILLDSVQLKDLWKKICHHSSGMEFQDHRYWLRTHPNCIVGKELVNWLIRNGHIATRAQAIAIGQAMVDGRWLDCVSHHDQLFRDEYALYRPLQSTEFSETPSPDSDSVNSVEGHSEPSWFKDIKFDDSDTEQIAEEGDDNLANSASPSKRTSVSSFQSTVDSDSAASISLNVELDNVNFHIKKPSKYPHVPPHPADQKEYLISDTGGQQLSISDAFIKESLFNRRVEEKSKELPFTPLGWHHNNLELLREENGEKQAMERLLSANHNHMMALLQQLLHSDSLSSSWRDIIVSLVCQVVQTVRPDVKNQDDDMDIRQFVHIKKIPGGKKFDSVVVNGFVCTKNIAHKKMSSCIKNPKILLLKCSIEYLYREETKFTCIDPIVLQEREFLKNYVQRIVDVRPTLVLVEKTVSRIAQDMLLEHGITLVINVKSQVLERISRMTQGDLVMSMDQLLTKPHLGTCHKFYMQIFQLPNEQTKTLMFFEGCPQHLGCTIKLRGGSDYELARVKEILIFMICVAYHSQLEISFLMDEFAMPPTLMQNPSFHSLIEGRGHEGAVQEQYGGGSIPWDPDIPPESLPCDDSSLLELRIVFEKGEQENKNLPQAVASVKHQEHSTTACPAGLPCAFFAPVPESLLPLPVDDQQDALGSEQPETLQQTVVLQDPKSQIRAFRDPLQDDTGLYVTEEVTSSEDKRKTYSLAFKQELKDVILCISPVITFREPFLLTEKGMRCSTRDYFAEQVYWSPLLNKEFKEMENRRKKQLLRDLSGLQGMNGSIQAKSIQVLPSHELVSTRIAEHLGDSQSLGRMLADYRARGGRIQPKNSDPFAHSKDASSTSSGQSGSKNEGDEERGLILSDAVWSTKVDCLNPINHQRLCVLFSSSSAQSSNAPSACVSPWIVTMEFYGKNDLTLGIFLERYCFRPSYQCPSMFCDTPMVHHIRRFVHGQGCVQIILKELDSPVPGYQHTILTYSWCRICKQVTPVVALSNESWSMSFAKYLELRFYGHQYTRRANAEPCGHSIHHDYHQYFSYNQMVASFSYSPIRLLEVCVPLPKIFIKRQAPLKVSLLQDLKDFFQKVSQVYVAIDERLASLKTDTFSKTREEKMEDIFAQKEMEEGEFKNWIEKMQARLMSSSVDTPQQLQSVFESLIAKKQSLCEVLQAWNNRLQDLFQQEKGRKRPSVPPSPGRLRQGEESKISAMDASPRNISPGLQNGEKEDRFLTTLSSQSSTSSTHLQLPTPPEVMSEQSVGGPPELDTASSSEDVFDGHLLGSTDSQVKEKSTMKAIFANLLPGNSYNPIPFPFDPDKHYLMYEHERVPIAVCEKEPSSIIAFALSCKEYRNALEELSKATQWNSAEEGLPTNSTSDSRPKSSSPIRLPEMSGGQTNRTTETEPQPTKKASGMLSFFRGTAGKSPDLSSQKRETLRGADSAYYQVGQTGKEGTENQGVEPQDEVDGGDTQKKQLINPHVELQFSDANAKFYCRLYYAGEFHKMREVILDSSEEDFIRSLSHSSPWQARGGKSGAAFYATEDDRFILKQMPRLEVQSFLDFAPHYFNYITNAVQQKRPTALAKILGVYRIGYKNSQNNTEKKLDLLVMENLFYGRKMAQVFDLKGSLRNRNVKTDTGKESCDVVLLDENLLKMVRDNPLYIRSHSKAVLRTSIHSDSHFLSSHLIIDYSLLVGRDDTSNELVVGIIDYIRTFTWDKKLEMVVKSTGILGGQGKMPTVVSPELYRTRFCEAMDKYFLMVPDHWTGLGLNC

SMILES | IC50 (MDA-MB-231) | IC50 (HeLa) | Kd [1] | Kd [2]
Nc1ncnc2c1c(-c1coc3ccccc13)cn2[C@H]1CC[C@@H](N)CC1 | > 5000 nM | > 5000 nM |  | 
COc1ccc2[nH]c(C)c(/C=C/C(=O)c3ccncc3)c2c1 |  |  | 5.3 nM | 3.75 nM
Nc1ncnc2c1c(-c1cc3ccccc3o1)cn2[C@H]1CC[C@@H](N)CC1 | 350 nM | 430 nM |  | 1.65 nM
Cc1cccc(/C=N/Nc2cc(N3CCOCC3)nc(OCCc3ccccn3)n2)c1 [APILIMOD] | 100 nM | 140 nM |  | 
